{"source": "PubChem BioAssay (NCI)", "assay_in_all_cases": "NCI tumour cell line growth inhibition, 48 h", "key": {"[1]": {"system": "DLD-1 colon"}, "[2]": {"system": "RXF-631 renal"}, "[3]": {"system": "DMS 114 small cell lung"}, "[4]": {"system": "HOP-18 NSCLC"}, "[5]": {"system": "PC-3 prostate"}, "[6]": {"system": "T-47D breast"}, "[7]": {"system": "BT-549 breast"}, "[8]": {"system": "MDA-N"}, "[9]": {"system": "HS 578T breast"}, "[10]": {"system": "SN12K1 renal"}, "[11]": {"system": "P388/ADR leukemia"}, "[12]": {"system": "P388 leukemia"}}, "note": "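Exposure lasted 48 hours, with cells grown in 96-well plates and compounds tested at five concentrations. GI50 = concentration required for 50% inhibition of growth. TGI: concentration producing complete growth inhibition.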"}
{"smiles": "COc1ccc2c(c1)[n+](=O)c(C(=O)CC(=O)C(=O)Nc1cccc(C)c1C)c(C)n2[O-]", "values": [{"measurement": "TGI", "setting": "[1]", "result": "> 100", "unit": "µM"}, {"measurement": "TGI", "setting": "[2]", "result": "> 100", "unit": "µM"}, {"measurement": "TGI", "setting": "[3]", "result": "> 100", "unit": "µM"}, {"measurement": "TGI", "setting": "[4]", "result": "> 100", "unit": "µM"}]}
{"smiles": "Nc1ccccc1C(=O)NC(=O)Nc1ccc(Oc2ncc(Br)cn2)c(Cl)c1", "values": [{"measurement": "TGI", "setting": "[5]", "result": 10.7, "unit": "µM"}, {"measurement": "TGI", "setting": "[1]", "result": 23.3, "unit": "µM"}, {"measurement": "TGI", "setting": "[6]", "result": "> 100", "unit": "µM"}, {"measurement": "TGI", "setting": "[7]", "result": "> 62.9", "unit": "µM"}, {"measurement": "TGI", "setting": "[3]", "result": "< 0.162", "unit": "µM"}, {"measurement": "TGI", "setting": "[4]", "result": 36, "unit": "µM"}]}
{"smiles": "O=C(NC(=O)c1cn(CCN2CCN(C(=O)NCCCCCCNC(=O)N3CCN(CCn4cc(C(=O)NC(=O)OCc5ccccc5)c(=O)[nH]c4=O)CC3)CC2)c(=O)[nH]c1=O)OCc1ccccc1", "values": [{"measurement": "TGI", "setting": "[1]", "result": "> 100", "unit": "µM"}, {"measurement": "TGI", "setting": "[2]", "result": "> 100", "unit": "µM"}, {"measurement": "TGI", "setting": "[3]", "result": "> 100", "unit": "µM"}, {"measurement": "TGI", "setting": "[4]", "result": "> 100", "unit": "µM"}]}
{"smiles": "CCC(C)(O)c1cn(-c2ccc(S(=O)(=O)O)cc2)nn1", "note": "(stereo unspecified)", "values": [{"measurement": "TGI", "setting": "[1]", "result": "> 100", "unit": "µM"}, {"measurement": "TGI", "setting": "[2]", "result": "> 100", "unit": "µM"}, {"measurement": "TGI", "setting": "[3]", "result": "> 100", "unit": "µM"}, {"measurement": "TGI", "setting": "[4]", "result": "> 100", "unit": "µM"}]}
{"smiles": "CC1(C)C(=O)C(=Cc2ccco2)C1=O", "values": [{"measurement": "TGI", "setting": "[1]", "result": "> 100", "unit": "µM"}, {"measurement": "TGI", "setting": "[2]", "result": "> 100", "unit": "µM"}, {"measurement": "TGI", "setting": "[3]", "result": "> 100", "unit": "µM"}, {"measurement": "TGI", "setting": "[4]", "result": "> 100", "unit": "µM"}]}
{"smiles": "c1ccc(C2CC(c3ccc4ccccc4c3)=Nc3ccccc3S2)cc1", "note": "(stereo unspecified)", "values": [{"measurement": "TGI", "setting": "[2]", "result": 91.1, "unit": "µM"}, {"measurement": "TGI", "setting": "[4]", "result": 58.5, "unit": "µM"}]}
{"smiles": "CC(=O)OC1C(O[C@H]2CC[C@]34O[C@]35CC[C@]3(C)C(C6(C)CC[C@@H](C(C)(C)O)O6)[C@@H](O)CC3(C)[C@@H]5CC(OC3OC(CO)C(O)C(O)C3O)C4C2(C)C)OCC(O)C1O", "note": "(stereo partly specified)", "values": [{"measurement": "TGI", "setting": "[1]", "result": "> 100", "unit": "µM"}, {"measurement": "TGI", "setting": "[2]", "result": "> 100", "unit": "µM"}, {"measurement": "TGI", "setting": "[3]", "result": "> 100", "unit": "µM"}, {"measurement": "TGI", "setting": "[4]", "result": "> 100", "unit": "µM"}]}
{"smiles": "CN(C)CCCCCNc1c2ccccc2nc2cccc([N+](=O)[O-])c12", "values": [{"measurement": "TGI", "setting": "[1]", "result": 0.031, "unit": "µM"}, {"measurement": "TGI", "setting": "[8]", "result": 0.000409, "unit": "µM"}, {"measurement": "GI50", "setting": "[6]", "result": 0.000296, "unit": "µM"}, {"measurement": "TGI", "setting": "[6]", "result": 0.0015, "unit": "µM"}, {"measurement": "TGI", "setting": "[9]", "result": 0.0059, "unit": "µM"}, {"measurement": "TGI", "setting": "[7]", "result": 0.00262, "unit": "µM"}, {"measurement": "TGI", "setting": "[3]", "result": 0.0118, "unit": "µM"}, {"measurement": "TGI", "setting": "[4]", "result": "> 0.1", "unit": "µM"}]}
{"smiles": "C/C(CC(=O)Nc1ccc(NC(=O)C/C(C)=N\\NC(N)=O)cc1)=N/NC(N)=O", "values": [{"measurement": "TGI", "setting": "[1]", "result": "> 66.6", "unit": "µM"}, {"measurement": "TGI", "setting": "[2]", "result": "> 100", "unit": "µM"}, {"measurement": "TGI", "setting": "[3]", "result": "> 53.3", "unit": "µM"}, {"measurement": "TGI", "setting": "[4]", "result": "> 100", "unit": "µM"}]}
{"smiles": "CCCCCCCCCCOC(=O)c1cc[n+](C)cc1", "values": [{"measurement": "TGI", "setting": "[1]", "result": 32.5, "unit": "µM"}, {"measurement": "TGI", "setting": "[3]", "result": 33.1, "unit": "µM"}, {"measurement": "TGI", "setting": "[4]", "result": "> 100", "unit": "µM"}]}
{"smiles": "O=C(N/C(=C/c1cccc([N+](=O)[O-])c1)c1nc2ccc(Cl)cc2[nH]1)c1ccccc1", "values": [{"measurement": "TGI", "setting": "[2]", "result": 27, "unit": "µM"}, {"measurement": "TGI", "setting": "[3]", "result": 62.1, "unit": "µM"}, {"measurement": "TGI", "setting": "[4]", "result": "> 100", "unit": "µM"}]}
{"smiles": "O=c1[nH]c(=O)n(C2CC(O)C(CO)O2)cc1COCC(F)(F)F", "note": "(stereo unspecified)", "values": [{"measurement": "TGI", "setting": "[1]", "result": "> 100", "unit": "µM"}, {"measurement": "TGI", "setting": "[2]", "result": "> 100", "unit": "µM"}, {"measurement": "TGI", "setting": "[3]", "result": "> 100", "unit": "µM"}]}
{"smiles": "COC(=O)/C(=C/c1ccc(OC)cc1)C(C(=O)O)=C1CCCCC1", "values": [{"measurement": "TGI", "setting": "[1]", "result": "> 100", "unit": "µM"}, {"measurement": "TGI", "setting": "[2]", "result": "> 100", "unit": "µM"}]}
{"smiles": "O=C1C=C(Nc2ccc(S(=O)(=O)Nc3ncccn3)cc2)c2ccccc2C1=O", "values": [{"measurement": "TGI", "setting": "[1]", "result": 43.5, "unit": "µM"}, {"measurement": "TGI", "setting": "[2]", "result": 47.3, "unit": "µM"}, {"measurement": "TGI", "setting": "[4]", "result": 82.6, "unit": "µM"}]}
{"smiles": "c1cc[c]([Sn]([O]c2cccc3cccnc23)([O]c2cccc3cccnc23)[c]2ccccc2)cc1", "values": [{"measurement": "GI50", "setting": "[1]", "result": 0.203, "unit": "µM"}, {"measurement": "TGI", "setting": "[1]", "result": 0.454, "unit": "µM"}, {"measurement": "GI50", "setting": "[3]", "result": 0.186, "unit": "µM"}, {"measurement": "TGI", "setting": "[3]", "result": 0.427, "unit": "µM"}, {"measurement": "GI50", "setting": "[4]", "result": 0.25, "unit": "µM"}, {"measurement": "TGI", "setting": "[4]", "result": 0.527, "unit": "µM"}]}
{"smiles": "C/C(O)=C(\\N=O)C(=O)NCc1ccccc1", "values": [{"measurement": "TGI", "setting": "[1]", "result": "> 100", "unit": "µM"}, {"measurement": "TGI", "setting": "[2]", "result": "> 100", "unit": "µM"}, {"measurement": "TGI", "setting": "[3]", "result": "> 100", "unit": "µM"}, {"measurement": "TGI", "setting": "[4]", "result": "> 100", "unit": "µM"}]}
{"smiles": "CCC[CH2][Sn]([CH2]CCC)([O]C(=O)c1cccc(F)c1F)[O]C(=O)c1cccc(F)c1F", "values": [{"measurement": "GI50", "setting": "[1]", "result": 0.653, "unit": "µM"}, {"measurement": "TGI", "setting": "[1]", "result": 1.94, "unit": "µM"}, {"measurement": "GI50", "setting": "[3]", "result": 0.291, "unit": "µM"}, {"measurement": "GI50", "setting": "[4]", "result": 2.17, "unit": "µM"}, {"measurement": "TGI", "setting": "[4]", "result": 3.61, "unit": "µM"}]}
{"smiles": "COc1ccc2c(c1)CCc1c(CO)c(COC(=O)NC(C)C)n(C)c1-2", "values": [{"measurement": "TGI", "setting": "[1]", "result": 15.8, "unit": "µM"}, {"measurement": "TGI", "setting": "[2]", "result": "> 100", "unit": "µM"}, {"measurement": "TGI", "setting": "[10]", "result": 17.2, "unit": "µM"}, {"measurement": "TGI", "setting": "[11]", "result": 6.22, "unit": "µM"}, {"measurement": "TGI", "setting": "[3]", "result": 12.3, "unit": "µM"}, {"measurement": "TGI", "setting": "[4]", "result": 13.1, "unit": "µM"}, {"measurement": "TGI", "setting": "[12]", "result": 3.54, "unit": "µM"}]}
{"smiles": "CC(C)=C1CCC(CN2CCOCC2)C1=O", "note": "(stereo unspecified)", "values": [{"measurement": "TGI", "setting": "[5]", "result": 34.1, "unit": "µM"}, {"measurement": "TGI", "setting": "[1]", "result": 10.8, "unit": "µM"}, {"measurement": "TGI", "setting": "[8]", "result": 35.1, "unit": "µM"}, {"measurement": "TGI", "setting": "[2]", "result": "> 31", "unit": "µM"}, {"measurement": "TGI", "setting": "[9]", "result": "> 100", "unit": "µM"}, {"measurement": "TGI", "setting": "[7]", "result": 31.8, "unit": "µM"}, {"measurement": "TGI", "setting": "[3]", "result": 25, "unit": "µM"}, {"measurement": "TGI", "setting": "[4]", "result": 23.8, "unit": "µM"}]}
{"smiles": "CCN(CC)c1ccc(N=Nc2ccc(-c3nc4cccn(C)c-4n3)cc2)cc1", "values": [{"measurement": "TGI", "setting": "[1]", "result": 36.1, "unit": "µM"}, {"measurement": "TGI", "setting": "[2]", "result": 33.7, "unit": "µM"}, {"measurement": "TGI", "setting": "[3]", "result": 13, "unit": "µM"}, {"measurement": "TGI", "setting": "[4]", "result": 89.9, "unit": "µM"}]}
{"smiles": "CC1=C(C(=O)Nc2ccccc2)C(c2cc(Cl)cc(Cl)c2)C(C(=O)Nc2ccccc2)=C(C)N1", "values": [{"measurement": "TGI", "setting": "[1]", "result": 20.2, "unit": "µM"}, {"measurement": "TGI", "setting": "[2]", "result": 63.5, "unit": "µM"}, {"measurement": "TGI", "setting": "[3]", "result": 18.1, "unit": "µM"}, {"measurement": "TGI", "setting": "[4]", "result": 26.6, "unit": "µM"}]}
{"smiles": "C1CC2=C(C1)C1=S(S2)SC2=C1CCC2", "values": [{"measurement": "TGI", "setting": "[1]", "result": "> 100", "unit": "µM"}, {"measurement": "TGI", "setting": "[2]", "result": "> 100", "unit": "µM"}, {"measurement": "TGI", "setting": "[3]", "result": "> 100", "unit": "µM"}, {"measurement": "TGI", "setting": "[4]", "result": "> 100", "unit": "µM"}]}
